# Columns and labels:
# mice [1] = format: in vivo; details: acetone test; compared with cisplatin, paclitaxel, or their 1:1 co-administration
# Method: (§1) The sensitivity to noxious heat was assessed by placing the mice on a hot plate (54 ± 1 °C) and measuring the latency (s), the time until the mice began licking their paws, shaking, or jumping to avoid the heat.
# (§2) Von Frey, hot plate, acetone evaporation, and ocular aperture ratio studies were carried out in Balb/c mice according to reported methods.[3] […] Final injection volume was 150 μL. Afterward, tests were carried out 1, 2, and 3 weeks post first injection.
# The test was carried out on a mesh floor, and acetone was dabbed on the plantar surface of the hind paw. Sensitivity to cold was recorded by the duration of nocifensive responses such as brisk withdrawal, flick of the paw, repeated flicking of the paw, repeated flicking of the hind paw, and licking of the paw. each group contained six animals.
# mice [2] = format: in vivo; details: hot plate 54 ± 1 °C; compared with cisplatin, paclitaxel, or their 1:1 co-administration
# Method: as §1, §2
# Unrestrained mouse was placed on a metal surface that was maintained at a constant temperature (54 ± 1 °C) and the response latency, which is the time taken to observe a nocifensive behavior, was recorded. These behaviors include fore paw withdrawal or licking, hind paw withdrawal or licking, stamping, leaning posture, and jumping. each group contained six animals. If no nocifensive behaviors were observed, the animals were removed from the hot plate after 30 s to prevent tissue damage.
# [3] = Stability of the Pt(IV) compounds in RPMI medium, monitored by HPLC; format: physicochemical; details: pH = 7, 37 °C, HPLC peak area
# Method: The stability of the Pt(IV) compounds was measured in RPMI medium, at pH = 7 and 37 °C, by monitoring the peak area of the prodrugs as a function of time.
# Pt(IV) complexes were dissolved in 1% DMSO and RPMI medium at pH 7.4, and kept at 37 °C. Stability half-lives, t1/2, were calculated by linear fitting of ln(At/A0) vs time (t), where At and A0 are the integrated peak areas by HPLC […].
# [4] = Reduction by 10 equiv of ascorbic acid, monitored by HPLC; format: physicochemical; details: 10 eq. ascorbic acid, pH = 7, 37 °C
# Method: To verify that the Pt(IV) prodrugs are activated by reduction, we incubated them with 10 eq. of ascorbic acid at pH = 7 at 37 °C and monitored by HPLC the reduction of the peak of the parent compound as a function of time.
# The half-lives (t1/2) of all compounds were obtained after linear fitting of ln(At/A0) vs time (t) by considering a pseudo-first-order rate equation (At = A0e^–kt), where A0 and At are the integrated areas of HPLC peaks of the respective complexes at t = 0 and at time t, respectively, and k (slope) is the rate constant. Then, t1/2 was calculated by utilizing the equation t1/2 = 0.693/k.
# mice [5] = experiment: Ongoing pain, eye-closing ratio; format: in vivo; details: i.p. days 1, 3, 5
# Method: Finally, we assessed whether the treatment with cisPt(OAc)2 or cisPt(Pac)(OH) prevents chemotherapy-induced ongoing pain, by assessing the eye-closing ratio.[53]−[55] The eye-closing ratio test was carried out prior to conducting the induced pain experiments. The eye-closing ratio was obtained by dividing the distance between the edges of the upper and lower eyelids by the length of the canthus (horizontal distance across the eye), where a value of 0 was given to completely closed eyes (indicating pain), and a value of 1 was given to fully open eyes (lack of pain).
# as §2
# The raw data for the ongoing pain was obtained by taking 3–5 photographs of each of the awake (not immobilized) mice and used such that the position of the eyelids in relation to the eye was clearly visible. The data were analyzed in a blind fashion by using the imaging software, ImageJ, to measure the length between the internal and external canthus (x) and the distance between the edge of the upper and lower eyelids (y). Finally, the ratio of y/x was calculated, and a value between 0 and 1 was obtained for each photo, where 0 is equivalent to the eye completely closed and 1 is equivalent to the eye completely open. The values obtained were an average of the values of the six animals in each group.
# [6] = test system: A2780cisR cisplatin-resistant ovarian carcinoma cells; experiment: Antiproliferative MTT assay, 72 h; format: cell-based, human; details: 72 h treatment
# Method: (§4) After 72 h of exposure, the cell biomass was determined by 3-(4,5-dimethylthiazol-2-yl)-2,5-diphenyl tetrazolium bromide (MTT) (Sigma-Aldrich) staining, and the absorptions were calculated as the delta of two measurements of the same well at wavelengths 570 and 690 nm. IC50 values were determined as the concentration that caused 50% inhibition of cell proliferation compared to an untreated control. The results were calculated as the mean values of three independent experiments.
# (§5) PC9 human non-small-cell lung carcinoma cells, A375 human malignant melanoma cells, and CT26 WT murine colon carcinoma cells were maintained in DMEM (high glucose, no glutamine/sodium pyruvate) supplemented with L-glutamine solution (4 mM) (2% v/v), 10% (v/v) heat-inactivated fetal bovine serum (South American origin, European grade), and 1% (v/v) penicillin–streptomycin solution (containing penicillin G sodium salt: 10 000 units/mL and streptomycin sulfate: 10 mg/mL) and were passaged twice a week.
# all cancer cell lines = experiment: Antiproliferative MTT assay, summary over the panel; format: cell-based; details: all cancer cell lines of the panel, 72 h
# Method: as §4
# [7] = test system: PC9 non-small-cell lung cancer cells; experiment: Antiproliferative MTT assay, 72 h; format: cell-based, human; details: PC9, 72 h treatment
# Method: as §4, §5
# A375 melanoma cells = experiment: Antiproliferative MTT assay, 72 h; format: cell-based, human
# Method: as §4, §5
# kidney = details: mouse, in vivo
# From the text: At the end of the experiments, mice were euthanized, and the tumor, spleen, liver, and kidneys were isolated and analyzed in terms of platinum content by ICP-MS (Figure 4F).
# All of the kidney (left kidney) samples were flash-frozen immediately after weighing for cryosections for the histopathological evaluation using H&E staining technique. The tissues were embedded in the OCT compound and 10 μm thick sections were cut and placed onto glass slides using the Leica CM3050 S Cryostat. The slides were dried in a desiccator for approximately 1 h before rinsing in water. Sections are ready for staining immediately after rinse. The slides were stained with H&E (Hematoxylin and eosin) using Leica Autostainer XL. Then, the slides were dehydrated through ascending series of ethanol to xylene before being coverslipped using Leica Coverslipper CV5030. The slides were imaged using the LABOMED Opti CX biological microscope. At least two sections of each kidney sample were stained and 5–10 images were taken for each section under 10× and 40× magnifications. The images were analyzed for histopathological changes by two pathologists in a blinded manner.
# [8] = test system: A2780 ovarian carcinoma cells; experiment: Antiproliferative MTT assay, 72 h; format: cell-based, human; details: A2780, 72 h treatment
# Method: as §4, §5
# [9] = test system: murine CT26 colon cancer model; experiment: In vivo inhibition of tumor growth; details: CT26 s.c. in BALB/c mice, i.p. every other day up to 4 doses, equimolar: cisplatin 3, paclitaxel 8.5, combination 3 + 8.5, cisPt(Pac)(OH) and its micelles 12 mg/kg
# mice [10] = experiment: Mechanical allodynia, von Frey assay; details: for mechanical allodynia (in words): compared with the untreated mice
# Method: as §2
# 8-week-old Balb/c mice were purchased from Envigo (Israel). Pain thresholds were assessed by observing withdrawal responses to mechanical stimulation of the plantar skin by using von Frey filaments. The mice were placed on a grid and allowed to accustom to the new environment for at least half an hour. The hind paw was touched vertically on the plantar surface with the tip of the filament. Once the fiber bends, the force applied is the maximum, making the repetitions reproducible. Hairs calibrated for forces between 0.008 and 2 g were applied 10 times each in ascending order of force at 5 s intervals to both hind paws. Sharp and quick leg withdrawal or immediate jumping in response to a touch with the hairs was considered as a withdrawal response. Paw movements associated with locomotion were not counted as the withdrawal response. The threshold of withdrawal response was defined when 6 out of 10 applications elicited pain responses. each group contained six animals.
# [11] = test system: CT26 murine colon cancer cells; experiment: Antiproliferative MTT assay, 72 h; format: cell-based; details: CT26, 72 h treatment
# Method: as §4, §5
# [12] = Platinum accumulation in organs and tumor by ICP-MS (CT26 study); format: in vivo, mice; details: ICP-MS at end of the CT26 experiment
# Method: Four-week-old female BALB/cAnNTac mice weighing 16–18 g were purchased from InVivos (Singapore). The animals were housed in Comparative Medicine (CM)-holding units at the National University of Singapore in a pathogen-free environment at constant temperature in a 12/12 h light/dark cycle environment. The mice were acclimatized for 3 days and given access to food and water ad libitum. The mouse colon carcinoma cells CT26 (1 × 10^5 cells in 100 μL of sterile PBS) were subcutaneously injected into the right flank of the mice. The administration of tested compounds was started when tumors became palpable (volume of ∼30 mm^3) on day 13. Subsequently, the animals were separated into 5 groups (n = 6 each) and injected i.p. with different compounds every other day up to 4 doses. Control mice were injected ip with 100 μL of sterile saline. The animals were controlled for pain and/or distress development, and the body weight and tumor size were closely monitored. All animals were alert and responsive during the whole experiment. The mice were euthanized when the diameter of the tumor reached 1.5 cm or upon development of ulceration. The tumor and organs (liver, kidney, and spleen) were collected […].
# (§3) Samples were weighed and mineralized with highly pure 70% nitric acid (Pt: ≤0.01 μg kg^–1, TraceSELECT Ultra, Sigma Chemical Co.) for 3 h. Afterward, solutions were completely dried at 110 °C and 1000 μL of 1% HNO3 was added. The platinum content of each sample was measured by ICP-MS. The calibration curve was obtained using known concentrations of standard solutions purchased from Sigma Chemical Co.
# [13] = Platinum accumulation in the DRG by ICP-MS; format: in vivo, mice; details: day 7 after injections on days 1, 3, 5
# Method: To explore whether the differences in the behavioral tests between cisplatin, cisplatin + paclitaxel, and cisPt(Pac)(OH) correlate with platinum accumulation in the DRG, we quantified the platinum in the DRG.
# Afterward, on days 7–10, animals from each group were anesthetized using isoflurane and decapitated. Thereafter, DRG were removed and placed in DDW at room temperature.
# as §3
# [14] = Body weight changes in the CT26 efficacy study (general toxicity); format: in vivo, mice; details: i.p., equimolar doses
# Method: Four-week-old female BALB/cAnNTac mice weighing 16–18 g were purchased from InVivos (Singapore). The animals were housed in Comparative Medicine (CM)-holding units at the National University of Singapore in a pathogen-free environment at constant temperature in a 12/12 h light/dark cycle environment. The mice were acclimatized for 3 days and given access to food and water ad libitum. The mouse colon carcinoma cells CT26 (1 × 10^5 cells in 100 μL of sterile PBS) were subcutaneously injected into the right flank of the mice. The administration of tested compounds was started when tumors became palpable (volume of ∼30 mm^3) on day 13. Subsequently, the animals were separated into 5 groups (n = 6 each) and injected i.p. with different compounds every other day up to 4 doses. Control mice were injected ip with 100 μL of sterile saline. The animals were controlled for pain and/or distress development, and the body weight and tumor size were closely monitored. […] The mice were euthanized when the diameter of the tumor reached 1.5 cm or upon development of ulceration.
Compound,cold allodynia (mice [1]),thermal hyperalgesia (mice [2]),t1/2 RPMI 1640 [3] [h],t1/2 10 equiv Asc [4] [h],ongoing (spontaneous) pain (mice [5]),IC50 [6] [nM],IC50 values (in words) (all cancer cell lines),IC50 [7] [nM],"IC50 (A375 melanoma cells; A375, 72 h treatment) [nM]",IC50 [8] [nM],Inhibition of Tumor Growth (TGI) [9] [%],mechanical allodynia (in words) (mice [10]; von Frey),IC50 [11] [nM],levels of Pt in the kidneys [12],platinum levels in the tumor [12],further results
CC(=O)[O][Pt]([Cl])([Cl])[O]C(C)=O.N.N [cisPt(OAc)2],significantly reduced cold allodynia,significantly reduced,120,7.8,did not induce any ongoing pain,–,–,–,–,–,–,–,–,–,–,–
N.N.[Cl][Pt][Cl] [cisplatin],–,–,–,–,substantial spontaneous pain,16200 ± 3140,low μM,5290 ± 1750,1910 ± 620,1180 ± 130,41,persistent reduction in the withdrawal threshold,5890 ± 1190,high levels of Pt,rather similar,"histopathological changes of the kidney tubules (kidney): focal tubular necrosis; reduction of withdrawal threshold (mice [10]; von Frey, compared with untreated mice): about 95%"
CC(=O)O[C@H]1C(=O)[C@@]2(C)[C@H]([C@H](OC(=O)c3ccccc3)[C@]3(O)C[C@H](OC(=O)[C@H](O)[C@@H](NC(=O)c4ccccc4)c4ccccc4)C(C)=C1C3(C)C)[C@]1(OC(C)=O)CO[C@@H]1C[C@@H]2O [paclitaxel],–,–,–,–,substantial spontaneous pain,–,low nM,–,–,–,27,persistent reduction in the withdrawal threshold,–,–,–,"IC50 ([6]; Homo sapiens): 3 ± 1 nM; IC50 ([7]; Homo sapiens): 4.5 ± 2 nM; IC50 (A375 melanoma cells; Homo sapiens, A-375, A375, 72 h treatment): 14 ± 4 nM; IC50 ([8]; Homo sapiens): 2.2 ± 1 nM; IC50 ([11]; Mus musculus): 384 ± 109 nM"
ctc-[Pt(NH3)2(Pac)(OH)Cl2] [cisPt(Pac)(OH)],significantly reduced cold allodynia,significantly reduced,35,0.16,did not induce any ongoing pain,5.9 ± 0.1,low nM,6 ± 1,18 ± 3,4.5 ± 2,65,–,406 ± 106,much lower levels,rather similar,platinum levels in the DRG [13]: lower than after treatment with cisplatin or the co-treatment with cisplatin and paclitaxel; kidney toxicity (creatinine and histopathology) (kidney): lower kidney toxicity; body weight loss compared to the control [14]: did not exhibit any substantial weight loss
CC(=O)[O][Pt]1([O]C(C)=O)[O]C(=O)C(=O)[O]1.NC1CCCCC1N [Oxali(OAc)2],–,–,742,63,–,–,–,–,–,–,–,–,–,–,–,"neuropathic pain by withdrawal thresholds to mechanical stimuli (mice [10]; male and female mice, 5.19 mg/kg i.p. days 1, 3, 5): did not induce neuropathic pain"
